Experimental findings from patent US20230031406A1, “COMPOUNDS AND COMPOSITIONS FOR TREATING CONDITIONS ASSOCIATED WITH NLRP ACTIVITY” (Novartis AG, priority 2018, published 2023) are described below.

In this experiment the test system is PMA-differentiated THP-1 cells. The experiment in a line: hTHP-1 assay containing 10% fetal bovine serum (IL-1β production, Tables B5 and B6). The format is cell-based, human. The procedure: The following protocol is suitable for testing the activity of the compounds disclosed herein. Procedure 1: IL-1β Production in PMA-Differentiated THP-1 Cells Stimulated with Gramicidin.
THP-1 cells were purchased from the American Type Culture Collection and sub-cultured according to instructions from the supplier. Cells were cultured in complete RPMI 1640 (containing 10% heat inactivated FBS, penicillin (100 units/ml) and streptomycin (100 μg/ml)), and maintained in log phase prior to experimental setup. Prior to the experiment, compounds were dissolved in dimethyl sulfoxide (DMSO) to generate a 30 mM stock. The compound stock was first pre-diluted in DMSO to 3, 0.34, 0.042 and 0.0083 mM intermediate concentrations and subsequently spotted using Echo550 liquid handler into an empty 384-well assay plate to achieve desired final concentration (e.g. 100, 33, 11, 3.7, 1.2, 0.41, 0.14, 0.046, 0.015, 0.0051, 0.0017 μM). DMSO was backfilled in the plate to achieve a final DMSO assay concentration of 0.37%. The plate was then sealed and stored at room temperature until required.
THP-1 cells were treated with PMA (Phorbol 12-myristate 13-acetate) (20 ng/ml) for 16-18 hours. On the day of the experiment the media was removed and adherent cells were detached with trypsin for 5 minutes. […] The cells were plated in the 384-well assay plate containing the spotted compounds at a density of 50,000 cells/well (final assay volume 50 μl). Cells were incubated with compounds for 1 hour and then stimulated with gramicidin (5 μM) (Enzo) for 2 hours. Plates were then centrifuged at 340 g for 5 min. Cell free supernatant (40 μL) was collected using a 96—CHannel PlateMaster (Gilson) and the production of IL-1β was evaluated by HTRF (cisbio). The plates were incubated for 18 h at 4° C. and read using the preset HTRF program (donor emission at 620 nm, acceptor emission at 668 nm) of the SpectraMax i3x spectrophotometer (Molecular Devices, software SoftMax 6). A vehicle only control and a dose titration of CRID3 (100-0.0017 μM) were run concurrently with each experiment.
Procedure 2: IL-1β Production in PMA-Differentiated THP-1 Cells Stimulated with Gramicidin.
THP-1 cells were purchased from the American Type Culture Collection and sub-cultured according to instructions from the supplier. Prior to experiments, cells were cultured in complete RPMI 1640 (containing 10% heat inactivated FBS, penicillin (100 units/ml) and streptomycin (100 μg/ml)), and maintained in log phase prior to experimental setup. Prior to the experiment THP-1 were treated with PMA (Phorbol 12-myristate 13-acetate) (20 ng/ml) for 16-18 hours. Compounds were dissolved in dimethyl sulfoxide (DMSO) to generate a 30mM stock. On the day of the experiment the media was removed and adherent cells were detached with trypsin for 5 minutes. […] The cells were plated in a 384-well plate at a density of 50,000 cells/well (final assay volume […]). Compounds were first dissolved in assay medium to obtain a 5× top concentration of 500 μM. 10 step dilutions (1:3) were then undertaken in assay medium containing 1.67% DMSO. 5× compound solutions were added to the culture medium to achieve desired final concentration (e.g. 100, 33, 11, 3.7, 1.2, 0.41, 0.14, 0.046, 0.015, 0.0051, 0.0017 μM). Final DMSO concentration was at 0.37%. Cells were incubated with compounds for 1 hour and then stimulated with gramicidin (5 μM) (Enzo) for 2 hours. Plates were then centrifuged at 340 g for 5 min. Cell free supernatant (40 μL) was collected using a 96—CHannel PlateMaster (Gilson) and the production of IL-1β was evaluated by HTRF (cisbio). A vehicle only control and a dose titration of CRID3 (100-0.0017 μM) were run concurrently with each experiment.
Tables B1, B2, B3, and B4 show the biological activity of compounds in hTHP-1 assay containing 2% fetal bovine serum. […] Key: <0.008 μM=“++++++”; ≥0.008 and <0.04 μM=“+++++”; >0.04 and <0.2 μM=“++++”; ≥0.2 and <1 μM=“+++”; ≥1 and <5 μM=“++”; ≥5 and <30 μM=“+”. […]

Where [1] appears, read: read-out: hTHP-1 IC50 in 10% FBS, hTHP-1 assay containing 10% fetal bovine serum, Table B6.
[2] abbreviates: Homo sapiens, THP-1, read-out: hTHP-1 IC50 in 10% FBS, hTHP-1 assay containing 10% fetal bovine serum, Table B5.

pIC50: −log10 of the molar value. Read-outs that look alike come from different tables or passages of the source.

Consider `CCn1cc(F)c(S(N)(=O)=NC(=O)Nc2c3c(nc(C)c2C(F)(F)F)CCC3)n1` (single isomer, unassigned) [Compound 1116b, (S) or (R)-1-ethyl-4-fluoro-N′-((2-methyl-3-(trifluoromethyl)-6,7-dihydro-5H-cyclopenta[b]pyridin-4-yl)carbamoyl)-1H-pyrazole-3-sulfonimidamide], for which, under “read-out: hTHP-1 IC50 in 10% FBS, hTHP-1 assay containing 10% fetal bovine serum, Table B5, listed as 849”, the negative logarithm of the IC50 (pIC50) is 5.30 to 6.00.
Regarding `Cc1c(C(F)(F)F)nc2c(c1NC(=O)N=S(N)(=O)c1nn(C(C)(F)F)cc1F)CCC2` (single isomer, unassigned) [Compound 1004b, (S) or (R)-1-(1,1-Difluoroethyl)-4-fluoro-N′-((3-methyl-2-(trifluoromethyl)-6,7-dihydro-5H-cyclopenta[b]pyridin-4-yl)carbamoyl)-1H-pyrazole-3-sulfonimidamide], the pIC50 (read-out: hTHP-1 IC50 in 10% FBS, hTHP-1 assay containing 10% fetal bovine serum, Table B5, listed as 833) was 5.30 to 6.00.
In the case of `CCn1cc(F)c(S(N)(=O)=NC(=O)Nc2c3c(nc(C(F)(F)F)c2C(F)(F)F)CCC3)n1` (stereo not shown) [Example 856, N′-((2,3-bis(trifluoromethyl)-6,7-dihydro-5H-cyclopenta[b]pyridin-4-yl)carbamoyl)-1-ethyl-4-fluoro-1H-pyrazole-3-sulfonimidamide], under “Homo sapiens, THP-1, read-out: hTHP-1 IC50 in 10% FBS, hTHP-1 assay containing 10% fetal bovine serum, Table B6”, the negative-log IC50 (pIC50) was 6.70 to 7.40.
Consider `Cc1c(C(F)(F)F)nc2c(c1NC(=O)N=S(N)(=O)c1nn(C3CC3)cc1F)CCC2` (single isomer, unassigned) [Example 869, (R) or (S)-1-cyclopropyl-4-fluoro-N′-((3-methyl-2-(trifluoromethyl)-6,7-dihydro-5H-cyclopenta[b]pyridin-4-yl)carbamoyl)-1H-pyrazole-3-sulfonimidamide], for which the pIC50 under setting [1] was 7.40 to 8.10.
`CCn1cc(F)c(S(N)(=O)=NC(=O)Nc2c(C)c(C(F)(F)F)nc3c2CC(C)C3)n1` (single isomer, unassigned) [Compound 1101d, (R, R) or (R, S)-N′-((3,6-dimethyl-2-(trifluoromethyl)-6,7-dihydro-5H-cyclopenta[b]pyridin-4-yl)carbamoyl)-1-ethyl-4-fluoro-1H-pyrazole-3-sulfonimidamide]: the negative-log IC50 (pIC50) (read-out: hTHP-1 IC50 in 10% FBS, hTHP-1 assay containing 10% fetal bovine serum, Table B5, listed as 824) was 6.00 to 6.70.
For `NS(=O)(=NC(=O)Nc1c2c(nc3c1CCC3)CCC2)c1nn(C2CC2)cc1F` (single isomer, unassigned) [Example 863, (R) or (S)-1-cyclopropyl-4-fluoro-N′-((1,2,3,5,6,7-hexahydrodicyclopenta[b,e]pyridin-8-yl)carbamoyl)-1H-pyrazole-3-sulfonimidamide], the negative logarithm of the IC50 (pIC50) under setting [1] was 6.70 to 7.40.
Take `CC(C)(O)c1csc(S(N)(=O)=NC(=O)Nc2c3c(nc(C(F)(F)F)c2C2CC2)CCC3)c1F` (stereo not shown) [Compound 1105, N′-((3-cyclopropyl-2-(trifluoromethyl)-6,7-dihydro-5H-cyclopenta [b]pyridin-4-yl)carbamoyl)-3-fluoro-4-(2-hydroxypropan-2-yl) thiophene-2-sulfonimidamide]: the pIC50 under setting [2] was 6.70 to 7.40.
The same measure, in the same setting: under `Cc1c(C(F)(F)F)nc2c(c1NC(=O)N=S(N)(=O)c1scc(C(C)(C)O)c1F)CCC2` (stereo not shown) [Compound 1108, 3-Fluoro-4-(2-hydroxy-propan-2-yl)-N′-((3-methyl-2-(trifluoromethyl)-6,7-dihydro-5H-cyclopenta[b]pyridin-4-yl)carbamoyl)thiophene-2-sulfonimidamide] stands 6.70 to 7.40.
Turning to `C[C@@H]1CCc2c1nc1c(c2NC(=O)N=S(N)(=O)c2nn(C3CC3)cc2F)CCC1` (single isomer, unassigned) [Example 868, (S) or (R)-1-cyclopropyl-4-fluoro-N′-(((R)-3-methyl-1,2,3,5,6,7-hexahydrodicyclopenta[b,e]pyridin-8-yl)carbamoyl)-1H-pyrazole-3-sulfonimidamide], under setting [1], the negative-log IC50 (pIC50) was 6.00 to 6.70.
Take `Cc1nc2c(c(NC(=O)N=S(N)(=O)c3scc(C(C)(C)O)c3F)c1-c1ccccc1)CCC2` (single isomer, unassigned) [Compound 1110b, (R) or (S)-3-fluoro-4-(2-hydroxypropan-2-yl)-N′-((2-methyl-3-phenyl-6,7-dihydro-5H-cyclopenta[b]pyridin-4-yl)carbamoyl)thiophene-2-sulfonimidamide]: the pIC50 (read-out: hTHP-1 IC50 in 10% FBS, hTHP-1 assay containing 10% fetal bovine serum, Table B5, listed as 845) is > 8.10.
